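All cell lines were grown in 96-well plates and treated with compound for 48 hours. GI50: concentration for 50% inhibition of growth. TGI marks complete inhibition of growth.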
Key:
Assay in all cases: NCI-60 cell line screen, 48 h
[1] = test system: 786-0 renal
[2] = test system: A498 renal
[3] = test system: A549 NSCLC
[4] = test system: ACHN renal
[5] = test system: BT-549 breast
[6] = test system: CAKI-1 renal
[7] = test system: CCRF-CEM leukemia
[8] = test system: COLO 205 colon
[9] = test system: DU-145 prostate
[10] = test system: HCC-2998 colon
[11] = test system: HCT-116 colon
[12] = test system: HCT-15 colon
[13] = test system: HL-60(TB) leukemia
[14] = test system: HOP-62 NSCLC
[15] = test system: HS 578T breast
[16] = test system: HT29 colon
[17] = test system: IGROV1 ovarian
[18] = test system: K-562 leukemia
[19] = test system: KM12 colon
[20] = test system: M14 melanoma
[21] = test system: MALME-3M melanoma
[22] = test system: MCF7 breast
[23] = test system: MDA-MB-231 breast
[24] = test system: MDA-MB-435
[25] = test system: MOLT-4 leukemia
[26] = test system: NCI-H226 lung
[27] = test system: NCI-H23 lung
[28] = test system: NCI-H460 lung
[29] = test system: NCI-H522 lung
[30] = test system: NCI/ADR-RES ovarian
[31] = test system: OVCAR-3 ovarian
[32] = test system: OVCAR-4 ovarian
[33] = test system: OVCAR-5 ovarian
[34] = test system: OVCAR-8 ovarian
[35] = test system: PC-3 prostate
[36] = test system: RPMI-8226 leukemia
[37] = test system: RXF 393 renal
[38] = test system: SF-268 CNS
[39] = test system: SF-295 CNS
[40] = test system: SF-539 CNS
[41] = test system: SK-MEL-28 melanoma
[42] = test system: SK-MEL-5 melanoma
[43] = test system: SK-OV-3 ovarian
[44] = test system: SN12C renal
[45] = test system: SNB-19 CNS
[46] = test system: SNB-75 CNS
[47] = test system: SR leukemia
[48] = test system: SW-620 colon
[49] = test system: T-47D breast
[50] = test system: TK-10 renal
[51] = test system: UACC-257 melanoma
[52] = test system: UACC-62 melanoma
[53] = test system: UO-31 renal

Compound `FC(F)(F)c1ccc(-c2cnc(Cl)nc2NC2CCCCCC2)cc1` has a GI50 [1] greater than 100 µM, a TGI [1] greater than 100 µM and a GI50 [2] greater than 100 µM. The TGI [2] was greater than 100 µM, the GI50 [3] was greater than 100 µM and the TGI [3] was greater than 100 µM. The GI50 [4] was greater than 100 µM, the TGI [4] was greater than 100 µM and the GI50 [5] was greater than 100 µM. It also gave a TGI [5] greater than 100 µM, a GI50 [6] of 57.4 µM and a TGI [6] greater than 100 µM. For the same compound, the GI50 [7] was 27.9 µM, the TGI [7] was greater than 100 µM and the GI50 [8] was 95.5 µM. The TGI [8] was greater than 100 µM, the GI50 [9] was greater than 100 µM and the TGI [9] was greater than 100 µM. For the same compound, the GI50 [10] was greater than 100 µM, the TGI [10] was greater than 100 µM and the GI50 [11] was 35.5 µM. For the same compound, the TGI [11] was greater than 100 µM, the GI50 [12] was greater than 100 µM and the TGI [12] was greater than 100 µM. For the same compound, the GI50 [13] was 24.9 µM, the TGI [13] was greater than 100 µM and the GI50 [14] was greater than 100 µM. It also gave a TGI [14] greater than 100 µM, a GI50 [15] greater than 100 µM and a TGI [15] greater than 100 µM. It also gave a GI50 [16] of 71.1 µM, a TGI [16] greater than 100 µM and a GI50 [17] greater than 100 µM. It also gave a TGI [17] greater than 100 µM, a GI50 [18] of 54.1 µM and a TGI [18] greater than 100 µM. It also gave a GI50 [19] of 97.1 µM, a TGI [19] greater than 100 µM and a GI50 [20] greater than 100 µM. For the same compound, the TGI [20] was greater than 100 µM, the GI50 [21] was greater than 100 µM and the TGI [21] was greater than 100 µM. For the same compound, the GI50 [22] was 31.2 µM, the TGI [22] was greater than 100 µM and the GI50 [23] was 36.4 µM. The TGI [23] was greater than 100 µM, the GI50 [24] was greater than 100 µM and the TGI [24] was greater than 100 µM. The GI50 [25] was 32.7 µM, the TGI [25] was greater than 100 µM and the GI50 [26] was greater than 100 µM. It also gave a TGI [26] greater than 100 µM, a GI50 [27] of 61.1 µM and a TGI [27] greater than 100 µM. The GI50 [28] was 73.1 µM, the TGI [28] was greater than 100 µM and the GI50 [29] was 45.4 µM. For the same compound, the TGI [29] was greater than 100 µM, the GI50 [30] was greater than 100 µM and the TGI [30] was greater than 100 µM. It also gave a GI50 [31] greater than 100 µM, a TGI [31] greater than 100 µM and a GI50 [32] of 38.7 µM. It also gave a TGI [32] greater than 100 µM, a GI50 [33] greater than 100 µM and a TGI [33] greater than 100 µM. For the same compound, the GI50 [34] was greater than 100 µM, the TGI [34] was greater than 100 µM and the GI50 [35] was 28.7 µM. It also gave a TGI [35] greater than 100 µM, a GI50 [36] of 8.03 µM and a TGI [36] greater than 100 µM. The GI50 [37] was greater than 100 µM, the TGI [37] was greater than 100 µM and the GI50 [38] was greater than 100 µM. For the same compound, the TGI [38] was greater than 100 µM, the GI50 [39] was 69.7 µM and the TGI [39] was greater than 100 µM. It also gave a GI50 [40] greater than 100 µM, a TGI [40] greater than 100 µM and a GI50 [41] greater than 100 µM. The TGI [41] was greater than 100 µM, the GI50 [42] was 62.8 µM and the TGI [42] was greater than 100 µM. It also gave a GI50 [43] greater than 100 µM, a TGI [43] greater than 100 µM and a GI50 [44] greater than 100 µM. The TGI [44] was greater than 100 µM, the GI50 [45] was greater than 100 µM and the TGI [45] was greater than 100 µM. The GI50 [46] was 80.6 µM, the TGI [46] was greater than 100 µM and the GI50 [47] was 38.9 µM. It also gave a TGI [47] greater than 100 µM, a GI50 [48] greater than 100 µM and a TGI [48] greater than 100 µM. The GI50 [49] was 19.1 µM, the TGI [49] was greater than 100 µM and the GI50 [50] was greater than 100 µM. It also gave a TGI [50] greater than 100 µM, a GI50 [51] greater than 100 µM and a TGI [51] greater than 100 µM. For the same compound, the GI50 [52] was greater than 100 µM, the TGI [52] was greater than 100 µM and the GI50 [53] was greater than 100 µM. It also gave a TGI [53] greater than 100 µM.

Reference: PubChem BioAssay (NCI)
